The assay concerns the target H1047R PIK3CA enzyme (Homo sapiens, UniProt P42336, H1047R). Nature of the assay: ADP-Glo Biochemical PIK3CA Kinase Assay. As for the experimental part: Compounds to be assayed were plated in 16 doses of 1:2 serial dilutions (20 nL volume each well) on a 1536-well plate, and the plate warmed to room temperature. PIK3CA enzyme (e.g. H1047R, E542K, E545K, or wild-type) (1 μL of 2 nM solution in Enzyme Assay Buffer (comprising 50 mM HEPES pH 7.4, 50 mM NaCl, 6 mM MgCl2, 5 mM DTT and 0.03% CHAPS)) was added and shaken for 10 seconds and preincubated for 30 minutes. To the well was added 1 μL of 200 μM ATP and 20 μM of diC8-PIP2 in Substrate Assay Buffer (50 mM HEPES pH7.4, 50 mM NaCl, 5 mM DTT and 0.03% CHAPS) to start the reaction, and the plate was shaken for 10 seconds, then spun briefly at 1500 rpm, and then incubated for 60 minutes at room temperature. The reaction was stopped by adding 2 μL of ADP-Glo reagent (Promega), and spinning briefly at 1500 rpm, and then incubating for 40 minutes. ADP-Glo Detection reagent (Promega) was added and the plate spun briefly at 1500 rpm, then incubated for 30 minutes.
(In general: ADP-Glo first removes unused ATP, then detects ADP through luciferase.)

Chain of H1047R PIK3CA enzyme (P42336 whole entry H1047R): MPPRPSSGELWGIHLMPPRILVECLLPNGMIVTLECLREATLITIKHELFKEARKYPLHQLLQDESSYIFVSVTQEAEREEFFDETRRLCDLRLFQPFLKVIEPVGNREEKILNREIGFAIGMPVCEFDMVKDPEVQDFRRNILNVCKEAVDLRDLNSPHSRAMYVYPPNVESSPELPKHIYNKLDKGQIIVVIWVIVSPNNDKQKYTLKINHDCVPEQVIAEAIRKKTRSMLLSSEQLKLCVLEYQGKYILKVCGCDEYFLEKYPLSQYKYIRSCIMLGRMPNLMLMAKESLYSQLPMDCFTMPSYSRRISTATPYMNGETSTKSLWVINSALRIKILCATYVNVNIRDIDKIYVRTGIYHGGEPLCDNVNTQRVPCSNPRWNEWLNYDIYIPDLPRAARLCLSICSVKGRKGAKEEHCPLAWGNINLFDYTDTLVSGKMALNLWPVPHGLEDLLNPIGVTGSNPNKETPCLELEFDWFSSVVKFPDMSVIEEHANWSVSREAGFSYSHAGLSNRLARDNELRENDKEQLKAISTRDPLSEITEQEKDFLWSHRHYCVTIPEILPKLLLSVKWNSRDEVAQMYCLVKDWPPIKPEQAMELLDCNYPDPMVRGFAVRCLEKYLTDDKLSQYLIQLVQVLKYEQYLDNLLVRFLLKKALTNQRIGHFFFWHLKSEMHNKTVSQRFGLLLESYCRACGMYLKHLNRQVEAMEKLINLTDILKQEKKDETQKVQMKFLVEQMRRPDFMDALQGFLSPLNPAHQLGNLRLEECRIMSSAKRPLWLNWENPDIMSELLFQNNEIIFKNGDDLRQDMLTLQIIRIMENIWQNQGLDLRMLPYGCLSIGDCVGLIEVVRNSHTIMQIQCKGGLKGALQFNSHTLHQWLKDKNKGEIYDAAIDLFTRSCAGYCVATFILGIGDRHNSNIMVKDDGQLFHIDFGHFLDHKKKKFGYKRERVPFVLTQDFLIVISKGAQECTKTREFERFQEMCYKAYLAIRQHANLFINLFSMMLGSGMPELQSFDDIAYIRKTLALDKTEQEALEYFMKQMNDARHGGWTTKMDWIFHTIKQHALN
Chain of H1047R PIK3CA enzyme (P27986 whole entry partner): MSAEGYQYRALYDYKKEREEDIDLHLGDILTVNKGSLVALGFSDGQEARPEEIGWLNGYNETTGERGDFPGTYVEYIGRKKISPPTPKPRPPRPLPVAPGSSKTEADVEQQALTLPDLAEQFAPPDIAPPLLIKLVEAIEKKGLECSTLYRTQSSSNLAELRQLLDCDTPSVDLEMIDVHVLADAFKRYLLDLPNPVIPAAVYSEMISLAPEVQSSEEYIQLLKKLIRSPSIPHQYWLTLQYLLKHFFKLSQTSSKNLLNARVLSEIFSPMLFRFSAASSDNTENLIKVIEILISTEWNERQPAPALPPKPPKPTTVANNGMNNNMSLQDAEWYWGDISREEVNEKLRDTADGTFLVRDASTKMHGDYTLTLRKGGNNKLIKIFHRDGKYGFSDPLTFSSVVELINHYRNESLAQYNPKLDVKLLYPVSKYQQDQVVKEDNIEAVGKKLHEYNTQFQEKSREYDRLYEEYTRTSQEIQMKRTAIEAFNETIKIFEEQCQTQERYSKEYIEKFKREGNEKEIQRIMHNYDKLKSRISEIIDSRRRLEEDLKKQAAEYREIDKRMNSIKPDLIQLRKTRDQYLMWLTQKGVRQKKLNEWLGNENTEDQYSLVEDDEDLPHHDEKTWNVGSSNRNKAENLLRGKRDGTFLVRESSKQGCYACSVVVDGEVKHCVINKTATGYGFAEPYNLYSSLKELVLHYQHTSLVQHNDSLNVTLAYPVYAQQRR

In the case of `Cc1ccccc1Nc1ncc(-c2cnn(C)c2)cc1NC(=O)c1cccc2cn(C)nc12` [I-121], the IC50 (usually the concentration that inhibits the measured activity by half) fell in the range of 10 to 100 µM.

The compound `Cc1ccccc1Nc1ncc(-c2cnn(C)c2)cc1NC(=O)c1ccc(OC(F)(F)F)cc1` [I-122] came in with a half-maximal inhibitory concentration (IC50) of 10 to 100 µM.

`Cc1ccccc1Nc1ncc(-c2cnn(C)c2)cc1NC(=O)c1ccc(S(C)(=O)=O)cc1` [I-123] yielded an IC50 of 10 to 100 µM.

The compound `COc1cccc(C(=O)Nc2cc(-c3cnn(C)c3)cnc2Nc2ccccc2C)c1` [I-124] registered an IC50 of 10 to 100 µM.

In the case of `Cc1ccccc1Nc1ncc(-c2cnn(C)c2)cc1NC(=O)c1cccc2cccnc12` [I-125], the IC50 lay within 10 to 100 µM.

Compound `COc1ccc(C(=O)Nc2cc(-c3cnn(C)c3)cnc2Nc2ccccc2C)cc1` [I-126] yielded an IC50 of 10 to 100 µM.

Compound `Cc1ccccc1Nc1ncc(-c2cnn(C)c2)cc1NC(=O)c1ccccc1C` [I-127] registered an IC50 of 10 to 100 µM.

As for `Cc1ccccc1Nc1ncc(-c2cnn(C)c2)cc1NC(=O)c1ccccc1S(C)(=O)=O` [I-128], the IC50 lay within 10 to 100 µM.

Compound `Cc1ccccc1Nc1ncc(-c2cnn(C)c2)cc1NC(=O)c1ccc(S(N)(=O)=O)cc1` [I-129] registered a half-inhibitory concentration (IC50) of 10 to 100 µM.

As to `Cc1ccccc1Nc1ncc(-c2cnn(C)c2)cc1NC(=O)c1ccccc1O` [I-130], the IC50 was 10 to 100 µM.

`Cc1ccccc1Nc1ncc(-c2cnn(C)c2)cc1NC(=O)c1cc2ccccc2s1` [I-131] gave a concentration for half-maximal inhibition (IC50) of 10 to 100 µM.

`Cc1ccccc1Nc1ncc(-c2cnn(C)c2)cc1NC(=O)c1cc2ccccc2n1C` [I-132]: the concentration for half-maximal inhibition (IC50) fell in the range of 1 to 10 µM.

In turn, `O=C(Nc1cccnc1NCc1ccccc1)c1csc2ccccc12` [I-133] showed a half-maximal inhibitory concentration (IC50) of 10 to 100 µM.

Regarding `COCCNc1ncccc1NC(=O)c1csc2ccccc12` [I-134], the half-inhibitory concentration (IC50) is 10 to 100 µM.

For the compound `CNC(=O)c1cnc(Nc2ccccc2C)c(NC(=O)Cc2ccccc2Cl)c1` [I-140], the IC50 was in the range of 10 to 100 µM.

`CNC(=O)c1cnc(Nc2ccccc2C)c(NC(=O)c2cc(F)cc(F)c2)c1` [I-141] gave an IC50 of 1 to 10 µM.

In the case of `CNC(=O)c1cnc(Nc2ccccc2C)c(NC(=O)c2cccc(F)c2)c1` [I-143], the half-inhibitory concentration (IC50) was in the range of 10 to 100 µM.

For `Cc1ccccc1Nc1ncc(-c2cnn(C)c2)cc1NC(=O)c1csc2ccc(Cl)cc12` [I-145], the IC50 lay within 1 to 10 µM.

For the compound `Cc1ccccc1Nc1ncc(-c2cnn(CCO)c2)cc1NC(=O)c1cc(F)cc(C(F)(F)F)c1` [I-147], the half-inhibitory concentration (IC50) was in the range of 0.5 to 1 µM.

Regarding `COCCn1cc(-c2cnc(Nc3ccccc3C)c(NC(=O)c3cc(F)cc(C(F)(F)F)c3)c2)cn1` [I-148], the IC50 fell in the range of 0.5 to 1 µM.

The compound `CC(C)(C)OC(=O)N1CCC(Nc2ncccc2NC(=O)c2csc3ccccc23)CC1` [I-151] came in with an IC50 of 10 to 100 µM.

For the compound `O=C(Nc1cccnc1NC1CCNCC1)c1csc2ccccc12` [I-152], the IC50 fell in the range of 10 to 100 µM.

`O=C(Nc1cccnc1NC1CCCCC1)c1csc2ccccc12` [I-153] came in with an IC50 of 10 to 100 µM.

Compound `Cc1ccccc1Nc1ncc(NC(=O)CC#N)cc1NC(=O)c1cc(F)cc(C(F)(F)F)c1` [I-154] yielded an IC50 of 1 to 10 µM.

Take `Cc1ccccc1Nc1ncc(NCC#N)cc1NC(=O)c1cc(F)cc(C(F)(F)F)c1` [I-155]: the IC50 fell in the range of 0.5 to 1 µM.

With `CNC(=O)c1cnc(Nc2ccccc2C)c(NC(=O)c2ccnc3ccccc23)c1` [I-157], the IC50 was 10 to 100 µM.

In the case of `CNC(=O)c1cnc(Nc2ccccc2C)c(NC(=O)c2nn(C)c3ccccc23)c1` [I-158], the IC50 fell in the range of 10 to 100 µM.

`CNC(=O)c1cnc(Nc2ccccc2C)c(NC(=O)C2(c3ccc(C)cc3)CC2)c1` [I-160] showed a concentration for half-maximal inhibition (IC50) of 10 to 100 µM.

`CNC(=O)c1cnc(Nc2ccccc2C)c(NC(=O)Cc2cc(F)cc(F)c2)c1` [I-161]: the IC50 lay within 10 to 100 µM.

`CCC(C(=O)Nc1cc(C(=O)NC)cnc1Nc1ccccc1C)c1ccccc1` (centres unmarked) [I-162] came in with an IC50 of 10 to 100 µM.

The compound `CNC(=O)c1cnc(Nc2ccccc2C)c(NC(=O)C2CCN(C(C)=O)CC2)c1` [I-163] had an IC50 of 10 to 100 µM.

`CNC(=O)c1cnc(Nc2ccccc2C)c(NC(=O)Cc2c(F)ccc(F)c2F)c1` [I-164] yielded an IC50 of 10 to 100 µM.

In turn, `CNC(=O)c1cnc(Nc2ccccc2C)c(NC(=O)[C@@H]2C[C@H]2c2ccccc2)c1` [I-165] displayed an IC50 of 10 to 100 µM.

With `CNC(=O)c1cnc(Nc2ccccc2C)c(NC(=O)C(c2ccccc2)C(C)C)c1` (centres unmarked) [I-166], the IC50 lay in the range of 10 to 100 µM.

Turning to `CNC(=O)c1cnc(Nc2ccccc2C)c(NC(=O)Cc2cn(C)c3ccccc23)c1` [I-167], the half-inhibitory concentration (IC50) lay in the range of 10 to 100 µM.

With `CNC(=O)c1cnc(Nc2ccccc2C)c(NC(=O)[C@@H](OC)c2ccccc2)c1` [I-169], the IC50 was in the range of 10 to 100 µM.

The compound `CNC(=O)c1cnc(Nc2ccccc2C)c(NC(=O)CC2CCc3ccccc32)c1` (centres unmarked) [I-170] came in with an IC50 of 10 to 100 µM.

In the case of `CNC(=O)c1cnc(Nc2ccccc2C)c(NC(=O)[C@]23C[C@H]4C[C@H](C[C@H](C4)C2)C3)c1` [I-171], the IC50 was 1 to 10 µM.

The compound `Cc1ccccc1Nc1ncc(-c2cnn(C)c2)cc1NS(=O)(=O)c1ccccc1` [I-172] gave a half-inhibitory concentration (IC50) of 10 to 100 µM.

As to `CNC(=O)c1cnc(Nc2cccnc2C)c(NC(=O)c2cc(F)cc(C(F)(F)F)c2)c1` [I-173], the 50% inhibitory concentration (IC50) lay within 10 to 100 µM.

Compound `CNC(=O)c1cnc(Nc2ccc(OC)cc2)c(NC(=O)c2cc(F)cc(C(F)(F)F)c2)c1` [I-174] returned an IC50 of 10 to 100 µM.

Compound `CNC(=O)c1cnc(Nc2ccccc2C)c(NC(=O)c2n[nH]c3ccccc23)c1` [I-175] registered an IC50 of 10 to 100 µM.

In turn, `CNC(=O)c1cnc(Nc2ccccc2C)c(NC(=O)c2cnc3ccccc3c2)c1` [I-176] registered a concentration for half-maximal inhibition (IC50) of 10 to 100 µM.

For `CNC(=O)c1cnc(Nc2ccccc2C)c(NC(=O)c2cc(C(F)(F)F)cc(C(F)(F)F)c2)c1` [I-177], the IC50 is 10 to 100 µM.

`Cc1ccccc1Nc1ncc(NCC(=O)O)cc1NC(=O)c1cc(F)cc(C(F)(F)F)c1` [I-179] yielded a half-maximal inhibitory concentration (IC50) of 1 to 10 µM.

On to `CNC(=O)c1cnc(Nc2ccccc2C)c(NC(=O)c2ccc3ccccc3c2)c1` [I-182], for which the IC50 lay within 10 to 100 µM.

As to `CNC(=O)c1cnc(Nc2ccccc2C)c(NC(=O)c2ccc3ncccc3c2)c1` [I-183], the IC50 lay within 10 to 100 µM.

`CNC(=O)c1cnc(Nc2ccccc2C)c(NC(=O)c2cc3ccccc3cn2)c1` [I-184] displayed an IC50 of 10 to 100 µM.

`CNC(=O)c1cnc(NCc2nccn2C)c(NC(=O)c2cc(F)cc(C(F)(F)F)c2)c1` [I-185] returned an IC50 of 10 to 100 µM.

Take `Cc1ccccc1Nc1ncc(NCC(N)=O)cc1NC(=O)c1cc(F)cc(C(F)(F)F)c1` [I-186]: the IC50 was in the range of 1 to 10 µM.

The compound `CNC(=O)c1cnc(Nc2ccccc2C)c(NC(=O)c2nc(SC)ncc2Cl)c1` [I-187] registered a concentration for half-maximal inhibition (IC50) of 10 to 100 µM.

Turning to `CNC(=O)c1cnc(Nc2ccccc2C)c(NC(=O)c2cc(F)cc(C3CC3)c2)c1` [I-188], the IC50 lay in the range of 1 to 10 µM.

As to `Cc1ccccc1Nc1ncc(C(=O)NCC2(O)CCCCC2)cc1NC(=O)c1csc2ccccc12` [I-189], the IC50 is 0.5 to 1 µM.

Regarding `Cc1ccccc1Nc1ncc(C(=O)Nc2cc[nH]c(=O)n2)cc1NC(=O)c1csc2ccccc12` [I-194], the IC50 lay in the range of 0.5 to 1 µM.

In turn, `CNC(=O)c1cnc(Nc2ccnc(C)c2)c(NC(=O)c2cc(F)cc(C(F)(F)F)c2)c1` [I-200] gave an IC50 of 10 to 100 µM.

`CNC(=O)c1cnc(Nc2ccc(C)nc2)c(NC(=O)c2cc(F)cc(C(F)(F)F)c2)c1` [I-201] came in with an IC50 of 10 to 100 µM.

Compound `CNC(=O)c1cnc(N2CC3CCCN3CC2C)c(NC(=O)c2cc(F)cc(C(F)(F)F)c2)c1` (centres unmarked) [I-202] gave an IC50 of 10 to 100 µM.

`CNC(=O)c1cnc(N)c(NC(=O)c2cc(F)cc(C(F)(F)F)c2)c1` [I-204] displayed an IC50 of 10 to 100 µM.

`CNC(=O)c1cnc(Nc2ccccc2C)c(NC(=O)c2ccc3c(n2)CCCN3)c1` [I-205]: the IC50 was 10 to 100 µM.

With `COC(=O)c1cnc(Nc2ccc(C)cc2)c(NC(=O)c2csc3ccccc23)c1` [I-206], the IC50 is 10 to 100 µM.

For `CNC(=O)c1cnc(Nc2ccccc2C)c(NC(=O)c2cn(C)c3ccccc23)c1` [I-207], the IC50 is 1 to 10 µM.

In the case of `CNC(=O)c1cnc(Nc2ccccc2C)c(NC(=O)c2csc(Cl)c2Cl)c1` [I-213], the IC50 lay within 10 to 100 µM.

Turning to `CNC(=O)c1cnc(Nc2ccccc2CN)c(NC(=O)c2csc3ccccc23)c1` [I-214], the IC50 fell in the range of 10 to 100 µM.

The compound `CC1CCc2ccccc2N1c1ncc(C(=O)NC2CS(=O)(=O)C2)cc1NC(=O)c1csc2ccccc12` (centres unmarked) [I-216] registered an IC50 of 1 to 10 µM.

Compound `CC1CCc2ccccc2N1c1ncc(C(=O)NCc2nccs2)cc1NC(=O)c1csc2ccccc12` (centres unmarked) [I-217] had an IC50 of 1 to 10 µM.

As for `CNC(=O)c1cnc(N2c3ccccc3CCC2C)c(NC(=O)c2csc3ccccc23)c1` (centres unmarked) [I-218], the IC50 fell in the range of 10 to 100 µM.

On to `Cc1ccccc1Nc1cnccc1NC(=O)c1cc(F)cc(C(F)(F)F)c1` [I-220], for which the IC50 fell in the range of 1 to 10 µM.

`Cc1ccccc1Nc1cnccc1NC(=O)c1csc2ccccc12` [I-221] showed an IC50 of 1 to 10 µM.

For `Cc1ccc(Nc2ncc(C(=O)NC3CS(=O)(=O)C3)cc2NC(=O)c2csc3ccccc23)cc1` [I-222], the IC50 lay within 1 to 10 µM.

The compound `Cc1ccc(Nc2ncc(C(=O)NCc3ccn(C)n3)cc2NC(=O)c2csc3ccccc23)cc1` [I-223] gave an IC50 of 1 to 10 µM.

For the compound `Cc1ccc(Nc2ncc(C(=O)NCc3cnn(C)c3)cc2NC(=O)c2csc3ccccc23)cc1` [I-224], the IC50 lay in the range of 10 to 100 µM.

As for `Cc1ccc(Nc2ncc(C(=O)NCc3nccs3)cc2NC(=O)c2csc3ccccc23)cc1` [I-225], the IC50 lay within 1 to 10 µM.

Turning to `CNC(=O)c1cnc(Nc2ccc(C)cc2)c(NC(=O)c2csc3ccccc23)c1` [I-226], the half-maximal inhibitory concentration (IC50) lay within 10 to 100 µM.

`Cc1ccccc1Nc1ncc(C(=O)Nc2cc[nH]n2)cc1NC(=O)c1cc(F)cc(C(F)(F)F)c1` [I-230] gave an IC50 of 1 to 10 µM.

For the origin of these results see US20250090540A1, “PI3K-ALPHA INHIBITORS AND METHODS OF USE THEREOF” (Relay Therapeutics, Inc., priority 2021, published 2025).
